Patent publication US8324131B2, “Composition and method for controlling plant diseases” (Sumitomo Chemical Company, Limited, priority 2008, dated 2012)

Assays:
[1] = tested on: Pythium ultimum, pathogen of cucumber damping-off; assay: Cucumber damping-off seed treatment test (Test Example 1); assay type: in vivo; conditions: 18° C., 13 days
Excerpt: An acetone solution of ethaboxam and an acetone solution of metconazole were mixed to prepare mixed liquids containing ethaboxam and metconazole in predetermined concentration. These mixed liquids were adhered on the surface of cucumber (Sagamihanjiro) seeds and allowed to stand still overnight. A plastic pot was filled with sandy soil and the seeds were disseminated on it. Then the seeds were covered with sandy soil which had been mixed with a bran medium on which Pythium ultimum, pathogen of cucumber damping-off, had been allowed to grow. They were irrigated and allowed to grow at 18° C. under humidity for 13 days, and thereafter control effect was checked.
As a comparison, acetone solutions containing ethaboxam in the predetermined concentration and acetone solutions containing metconazole in the predetermined concentration were prepared and subjected to similar tests.
In order to calculate the control value, the incidence of disease was also determined in the case in which the seeds had not been treated with the agent.
The incidence of disease was calculated by Equation 1 and the control value was calculated by Equation 2 based on the incidence of disease.
Incidence of disease=(Number of no emerging seedlings and number of seedlings in which development of disease was observed)×100/(Number of total disseminated seeds) “Equation 1” Control value=100×(A−B)/A “Equation 2”;
A: Incidence of disease of plant in untreated area
B: Incidence of disease of plant in treated area
Generally, the control value expected for the case in which the given two kinds of active ingredient compounds are mixed and used for the treatment, the so-called control value expectation is calculated from the following Colby's calculating equation. E=X+Y−(X×Y)/100 “Equation 3”;
X: Control value (%) when active ingredient compound A is used for treatment in M g per 100 kg or M ppm of seeds
Y: Control value (%) when active ingredient compound B is used for treatment in N g per 100 kg or N ppm of seeds
E: Control value (%) expected for the case in which active ingredient compound A in M g per 100 kg or M ppm of seeds and active ingredient compound B in N g per 100 kg or N ppm of seeds are mixed and used for treatment (hereinbelow referred to as “control value expectation”) “Synergetic effect (%)” (Actual control value)×100/(Control value expectation)

[2] = tested on: pathogen of cucumber gray mold; assay: Cucumber gray mold foliar spray test (Test Example 2); assay type: in vivo, Botrytis cinerea; conditions: 12.5 ppm of each test compound; for Actual control value: spray to stalk and leaves of cucumber seedlings, 12° C., high humidity, 6 days
Excerpt: A plastic pot was filled with sandy soil and cucumber (Sagamihanjiro) seeds were disseminated on it. Then the seeds were allowed to grow in a glasshouse for 12 days. A wettable powder of ethaboxam and a wettable powder of metconazole were individually diluted with water and then mixed to prepare mixed liquids containing ethaboxam and metconazole in predetermined concentration. These mixed liquids were sprayed to the stalk and leaves of cucumber seedlings to adhere them sufficiently on the surface of leaves of the seedlings. After spraying, the cucumber seedlings were air-dried and a PDA medium containing spores of pathogen of cucumber gray mold was placed onto the leaves of the seedlings. Then the plants were allowed to stand at 12° C. under high humidity for 6 days, and thereafter control effect was checked.
As a comparison, mixed liquids containing ethaboxam and triadimefon, mixed liquids containing ethaboxam and triadimenol, and mixed liquids containing ethaboxam and imazalil were prepared, sprayed to the stalk and leaves of cucumber seedlings to adhere them sufficiently on the surface of leaves of the seedlings, and subjected to similar tests, respectively. In addition, the above wettable powder of ethaboxam and the above wettable powder of metconazole were individually diluted with water to prepare liquids containing ethaboxam in predetermined concentration and liquids containing metconazole in predetermined concentration and then subjected to similar tests.
The incidence of disease was calculated by Equation 4 and the control value was calculated by Equation 2 based on the incidence of disease.
Incidence of disease=(diameter of leaf spot of plant in treated area)/(diameter of leaf spot of plant in untreated area)×100 “Equation 4”

SMILES | Actual control value ([1]; Metconazole 5 g/100 kg-seed alone) [%] | Actual control value ([1]; Metconazole 10 g/100 kg-seed alone) [%] | Actual control value ([1]; Metconazole 20 g/100 kg-seed alone) [%] | Control value expectation [2] [%] | Actual control value [2] [%] | Actual control value ([1]; Ethaboxam 5 g/100 kg-seed alone) [%] | Actual control value ([1]; Ethaboxam 10 g/100 kg-seed alone) [%]
CC1(C)CCC(Cc2ccc(Cl)cc2)C1(O)Cn1cncn1 (stereo not drawn) [Metconazole] | 0 | 0 | 0 | 0 | 0 | – | –
CCNc1nc(CC)c(C(=O)NC(C#N)c2cccs2)s1 (stereo not drawn) [Ethaboxam] | – | – | – | 0 | 0 | 25 | 58
